Results published in ChEMBL document CHEMBL1201862, “PubChem BioAssay data set” (2004).
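Values below derive from 48-hour exposures of cells grown in 96-well plates, with endpoints linearly interpolated between the two concentrations bracketing the appropriate inhibition level. Abbreviation: GI50, concentration required for 50% inhibition of growth.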 Active and inactive are the calls of the source. No stated cut-off is given here; in the data, active = GI50 up to about 1.1 µM and inactive = higher.

Tests used:
Assay in all cases: DTP human tumour cell line panel, 48 h
[1] = tested on: KM12
[2] = tested on: HOP-62
[3] = tested on: Malme-3M
[4] = tested on: A549
[5] = tested on: SW-620
[6] = tested on: OVCAR-3
[7] = tested on: RXF 631
[8] = tested on: OVCAR-8
[9] = tested on: SK-MEL-28
[10] = tested on: U-251
[11] = tested on: M14
[12] = tested on: CCRF-CEM
[13] = tested on: DMS-114
[14] = tested on: EKVX
[15] = tested on: UO-31
[16] = tested on: SK-OV-3
[17] = tested on: HCT-15
[18] = tested on: HCC 2998
[19] = tested on: HOP-92
[20] = tested on: UACC-62
[21] = tested on: IGROV-1
[22] = tested on: HCT-116
[23] = tested on: SF-295
[24] = tested on: COLO 205
[25] = tested on: SF-268
[26] = tested on: SK-MEL-2
[27] = tested on: NCI-H226
[28] = tested on: 786-0
[29] = tested on: SNB-19
[30] = tested on: LXFL 529
[31] = tested on: SNB-75
[32] = tested on: CAKI-1
[33] = tested on: OVCAR-4
[34] = tested on: DMS-273
[35] = tested on: SK-MEL-5
[36] = tested on: XF498
[37] = tested on: M19-MEL
[38] = tested on: SNB-78
[39] = tested on: DLD-1
[40] = tested on: LOX IMVI
[41] = tested on: RPMI-8226
[42] = tested on: SN12C
[43] = tested on: TK-10
[44] = tested on: NCI-H460
[45] = tested on: K562
[46] = tested on: HT-29
[47] = tested on: RXF 393
[48] = tested on: NCI-H23
[49] = tested on: NCI-H522
[50] = tested on: KM-20L2
[51] = tested on: SR
[52] = tested on: OVCAR-5
[53] = tested on: UACC-257
[54] = tested on: A498
[55] = tested on: ACHN
[56] = tested on: HOP-18
[57] = tested on: MOLT-4
[58] = tested on: SF-539
[59] = tested on: HL-60

`COc1ccc(CCc2cc(OC)cc(OC)c2)cc1` was tested, and the GI50 [1] was 4.92 µM (inactive), the GI50 [2] was 16.7 µM (inactive) and the GI50 [3] was 33.7 µM (inactive). For the same compound, the GI50 [4] was 19.2 µM (inactive), the GI50 [5] was 5.93 µM (inactive) and the GI50 [6] was 10.9 µM (inactive). The GI50 [7] was 13.7 µM (inactive), the GI50 [8] was 66.4 µM (inactive) and the GI50 [9] was 29.6 µM (inactive). For the same compound, the GI50 [10] was 31.6 µM (inactive), the GI50 [11] was 25.2 µM (inactive) and the GI50 [12] was 15.6 µM (inactive). The GI50 [13] was 3.9 µM (inactive), the GI50 [14] was 45.1 µM (inactive) and the GI50 [15] was 52.7 µM (inactive). The GI50 [16] was 36.6 µM (inactive), the GI50 [17] was 7.06 µM and the GI50 [18] was 10.2 µM (inactive). For the same compound, the GI50 [19] was 38.3 µM (inactive), the GI50 [20] was 11.9 µM (inactive) and the GI50 [21] was 43 µM (inactive). The GI50 [22] was 24.3 µM (inactive), the GI50 [23] was 22.6 µM (inactive) and the GI50 [24] was 12 µM (inactive). The GI50 [25] was 39.4 µM (inactive), the GI50 [26] was 11.1 µM (inactive) and the GI50 [27] was 30.7 µM (inactive). The GI50 [28] was 47.1 µM (inactive), the GI50 [29] was > 100 µM (inactive) and the GI50 [30] was 32.9 µM (inactive). The GI50 [31] was 32.9 µM (inactive), the GI50 [32] was 13.2 µM (inactive) and the GI50 [33] was 27 µM (inactive). The GI50 [34] was 5.15 µM (inactive), the GI50 [35] was 19.2 µM (inactive) and the GI50 [36] was 16.7 µM (inactive). For the same compound, the GI50 [37] was 25.3 µM (inactive), the GI50 [38] was 51.4 µM (inactive) and the GI50 [39] was 23.1 µM (inactive). The GI50 [40] was 38.8 µM (inactive), the GI50 [41] was 16.1 µM (inactive) and the GI50 [42] was 45.9 µM (inactive). The GI50 [43] was 54.2 µM (inactive), the GI50 [44] was 22 µM (inactive) and the GI50 [45] was 3.34 µM (inactive). The GI50 [46] was 6.11 µM (inactive), the GI50 [47] was 18 µM (inactive) and the GI50 [48] was 24.2 µM (inactive). The GI50 [49] was 4.98 µM (inactive), the GI50 [50] was 13.6 µM (inactive) and the GI50 [51] was 9.71 µM (inactive). For the same compound, the GI50 [52] was > 61.5 µM (inactive), the GI50 [53] was 51.4 µM (inactive) and the GI50 [54] was 17 µM (inactive). The GI50 [55] was 58.5 µM (inactive), the GI50 [56] was > 32.4 µM (inactive) and the GI50 [57] was 8.17 µM (inactive). The GI50 [58] was 31.6 µM (inactive) and the GI50 [59] was 8.69 µM (inactive).

With `O=C1CC2CCCC23CC2(CCN13)OCCO2` (configuration not stated) the GI50 [1] was > 100 µM (inactive), the GI50 [2] was > 100 µM (inactive) and the GI50 [3] was > 100 µM (inactive). The GI50 [4] was > 100 µM (inactive), the GI50 [5] was > 100 µM (inactive) and the GI50 [6] was > 100 µM (inactive). For the same compound, the GI50 [7] was > 100 µM (inactive), the GI50 [8] was > 100 µM (inactive) and the GI50 [9] was > 100 µM (inactive). For the same compound, the GI50 [10] was > 100 µM (inactive), the GI50 [11] was > 100 µM (inactive) and the GI50 [12] was > 100 µM (inactive). The GI50 [13] was > 100 µM (inactive), the GI50 [14] was > 100 µM (inactive) and the GI50 [15] was > 100 µM (inactive). The GI50 [16] was > 100 µM (inactive), the GI50 [18] was > 100 µM (inactive) and the GI50 [19] was > 100 µM (inactive). The GI50 [20] was > 100 µM (inactive), the GI50 [21] was > 100 µM (inactive) and the GI50 [22] was > 100 µM (inactive). For the same compound, the GI50 [23] was > 100 µM (inactive), the GI50 [24] was > 100 µM (inactive) and the GI50 [25] was > 100 µM (inactive). The GI50 [26] was > 100 µM (inactive), the GI50 [27] was > 100 µM (inactive) and the GI50 [28] was > 100 µM (inactive). For the same compound, the GI50 [29] was > 100 µM (inactive), the GI50 [30] was > 100 µM (inactive) and the GI50 [31] was > 100 µM (inactive). The GI50 [32] was > 100 µM (inactive), the GI50 [33] was > 100 µM (inactive) and the GI50 [34] was > 100 µM (inactive). For the same compound, the GI50 [35] was > 100 µM (inactive), the GI50 [36] was > 100 µM (inactive) and the GI50 [37] was > 100 µM (inactive). The GI50 [38] was > 100 µM (inactive), the GI50 [39] was > 100 µM (inactive) and the GI50 [40] was > 100 µM (inactive). For the same compound, the GI50 [41] was > 100 µM (inactive), the GI50 [42] was > 100 µM (inactive) and the GI50 [43] was > 100 µM (inactive). The GI50 [44] was > 100 µM (inactive), the GI50 [45] was > 100 µM (inactive) and the GI50 [46] was > 100 µM (inactive). The GI50 [47] was > 100 µM (inactive), the GI50 [48] was > 100 µM (inactive) and the GI50 [49] was > 100 µM (inactive). The GI50 [50] was > 100 µM (inactive), the GI50 [51] was > 100 µM (inactive) and the GI50 [52] was > 100 µM (inactive). The GI50 [53] was > 100 µM (inactive), the GI50 [54] was > 100 µM (inactive) and the GI50 [55] was > 100 µM (inactive). The GI50 [56] was > 100 µM (inactive), the GI50 [57] was > 100 µM (inactive) and the GI50 [58] was > 100 µM (inactive). The GI50 [59] was > 100 µM (inactive).
